Measured values published in patent publication US20090253709A1 (NATIONAL DEFENSE MEDICAL CENTER, priority 2008, published 2009).

How the values were obtained:
Test in all cases: In vitro cytotoxicity, Development Therapeutics Program
Type in all cases: cell-based
[1] = test system: A498; conditions: A498, renal cancer; 1.0×10^−5 M
Outline: (§1)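 Single-dose screen, 1.0×10^−5 M compound; cancer cell lines; read-out = growth inhibition level; run by the Development Therapeutics Program (US).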

[2] = test system: BT-549; conditions: BT-549, breast cancer; 1.0×10^−5 M
Outline: as §1

[3] = test system: CAK1-1; conditions: CAK1-1, renal cancer; 1.0×10^−5 M
Outline: as §1

[4] = test system: DU-145; conditions: DU-145, prostate cancer; 1.0×10^−5 M
Outline: as §1

[5] = test system: HCC-2998; conditions: HCC-2998, colon cancer; 1.0×10^−5 M
Outline: as §1

[6] = test system: HCT-116; conditions: HCT-116, colon cancer; 1.0×10^−5 M
Outline: as §1

[7] = test system: HCT-15; conditions: HCT-15, colon cancer; 1.0×10^−5 M
Outline: as §1

[8] = test system: HL-60(TB); conditions: leukemia, 1.0×10^−5 M
[9] = test system: HOP-62; conditions: HOP-62, non-small cell lung cancer; 1.0×10^−5 M
Outline: as §1

[10] = test system: HOP-92; conditions: HOP-92, non-small cell lung cancer; 1.0×10^−5 M
Outline: as §1

[11] = test system: HS 578T; conditions: breast cancer, 1.0×10^−5 M
Outline: as §1

[12] = test system: HT29; conditions: HT29, colon cancer; 1.0×10^−5 M
Outline: as §1

[13] = test system: K-562; conditions: K-562, leukemia; 1.0×10^−5 M
Outline: as §1

[14] = test system: KM12; conditions: KM12, colon cancer; 1.0×10^−5 M
Outline: as §1

[15] = test system: M14; conditions: M14, melanoma; 1.0×10^−5 M
Outline: as §1

[16] = test system: MALME-3M; conditions: melanoma, 1.0×10^−5 M
Outline: as §1

[17] = test system: MDA-MB-231/ATCC; conditions: breast cancer, 1.0×10^−5 M
Outline: as §1

[18] = test system: MDA-MB-435; conditions: MDA-MB-435, breast cancer; 1.0×10^−5 M
Outline: as §1

[19] = test system: MOLT-4; conditions: MOLT-4, leukemia; 1.0×10^−5 M
Outline: as §1

[20] = test system: NCI-H23; conditions: NCI-H23, non-small cell lung cancer; 1.0×10^−5 M
Outline: as §1

[21] = test system: NCl-H460; conditions: NCl-H460, non-small cell lung cancer; 1.0×10^−5 M
Outline: as §1

[22] = test system: NCl-H522; conditions: NCl-H522, non-small cell lung cancer; 1.0×10^−5 M
Outline: as §1

[23] = test system: OVCAR-8; conditions: OVCAR-8, ovarian cancer; 1.0×10^−5 M
Outline: as §1

[24] = test system: RPMI-8226; conditions: RPMI-8226, leukemia; 1.0×10^−5 M
Outline: as §1

[25] = test system: SF-539; conditions: SF-539, CNS cancer; 1.0×10^−5 M
Outline: as §1

[26] = test system: SK-MEL-28; conditions: SK-MEL-28, melanoma; 1.0×10^−5 M
Outline: as §1

[27] = test system: SK-MEL-2; conditions: SK-MEL-2, melanoma; 1.0×10^−5 M
Outline: as §1

[28] = test system: SK-MEL-5; conditions: SK-MEL-5, melanoma; 1.0×10^−5 M
Outline: as §1

[29] = test system: SK-OV-3; conditions: SK-OV-3, ovarian cancer; 1.0×10^−5 M
Outline: as §1

[30] = test system: SN12C; conditions: renal cancer, 1.0×10^−5 M
Outline: as §1

[31] = test system: SNB-19; conditions: SNB-19, CNS cancer; 1.0×10^−5 M
Outline: as §1

[32] = test system: SNB-75; conditions: SNB-75, CNS cancer; 1.0×10^−5 M
Outline: as §1

[33] = test system: T-47D; conditions: breast cancer, 1.0×10^−5 M
Outline: as §1

[34] = test system: U251; conditions: U251, CNS cancer; 1.0×10^−5 M
Outline: as §1

[35] = test system: UACC-257; conditions: UACC-257, melanoma; 1.0×10^−5 M
Outline: as §1

[36] = test system: UACC-62; conditions: UACC-62, melanoma; 1.0×10^−5 M
Outline: as §1

SMILES | Cellular growth rate (%) [1] [%] | Cellular growth rate (%) [2] [%] | Cellular growth rate (%) [3] [%] | Cellular growth rate (%) [4] [%] | Cellular growth rate (%) [5] [%] | Cellular growth rate (%) [6] [%] | Cellular growth rate (%) [7] [%] | Cellular growth rate (%) [8] [%] | Cellular growth rate (%) [9] [%] | Cellular growth rate (%) [10] [%] | Cellular growth rate (%) [11] [%] | Cellular growth rate (%) [12] [%] | Cellular growth rate (%) [13] [%] | Cellular growth rate (%) [14] [%] | Cellular growth rate (%) [15] [%] | Cellular growth rate (%) [16] [%] | Cellular growth rate (%) [17] [%] | Cellular growth rate (%) [18] [%] | Cellular growth rate (%) [19] [%] | Cellular growth rate (%) [20] [%] | also measured
CC(=O)Nc1ccc2c(c1)C(=O)c1cc(NC(C)=O)ccc1C2=O [Compound 26, 2,7-Bis(acetamido)anthraquinone] | 115.60 | 93.29 | 105.10 | 116.79 | 105.35 | 101.91 | 93.93 | 38.74 | 110.60 | 101.26 | 133.05 | 107.23 | 98.54 | 105.94 | 105.11 | 111.26 | 103.99 | 109.48 | 96.96 | 94.24 | Cellular growth rate (%) [21]: 109.29%; Cellular growth rate (%) [22]: 93.56%; Cellular growth rate (%) [23]: 99.85%; Cellular growth rate (%) [24]: 121.47%; Cellular growth rate (%) [25]: 103.04%; Cellular growth rate (%) [26]: 117.60%; Cellular growth rate (%) [27]: 30.15%; Cellular growth rate (%) [28]: 108.87%; Cellular growth rate (%) [29]: 101.12%; Cellular growth rate (%) [30]: 113.35%; Cellular growth rate (%) [31]: 94.40%; Cellular growth rate (%) [32]: 106.91%; Cellular growth rate (%) [33]: 96.17%; Cellular growth rate (%) [34]: 95.14%; Cellular growth rate (%) [35]: 26.97%; Cellular growth rate (%) [36]: 101.24%
O=C1c2ccc(NC(=O)C3CC3)cc2C(=O)c2cc(NC(=O)C3CC3)ccc21 [Compound 32, 2,7-Bis(cyclopropanecarbonamido)anthraquinone] | 92.35 | 92.51 | 88.43 | 98.83 | 132.37 | 87.14 | 86.35 | 62.45 | 91.64 | 86.18 | 118.90 | 106.26 | 91.60 | 92.67 | 98.89 | 91.76 | 97.05 | 97.35 | 94.29 | 95.85 | Cellular growth rate (%) [21]: 89.03%; Cellular growth rate (%) [22]: 89.41%; Cellular growth rate (%) [23]: 94.34%; Cellular growth rate (%) [24]: 88.38%; Cellular growth rate (%) [25]: 93.24%; Cellular growth rate (%) [26]: 108.51%; Cellular growth rate (%) [27]: 16.85%; Cellular growth rate (%) [28]: 75.67%; Cellular growth rate (%) [29]: 93.16%; Cellular growth rate (%) [30]: 82.93%; Cellular growth rate (%) [31]: 98.79%; Cellular growth rate (%) [32]: 89.23%; Cellular growth rate (%) [33]: 79.75%; Cellular growth rate (%) [34]: 72.62%; Cellular growth rate (%) [35]: 107.63%; Cellular growth rate (%) [36]: 81.00%
